Experimental findings from patent publication US20100029609A1 (priority 2006, published 2010) are described below.

The structures appear in SMILES notation. pIC50: −log10 of the molar value.

In this assay the target is T1, human S1P1 receptors (Homo sapiens, UniProt P21453).
T1 construct: expressed in transfected cells; host or cells: HeLa (human cervix carcinoma, ATCC CCL2), HeLa-S1P1/Gα16 cell clone 1
T1 sequence (P21453 whole entry): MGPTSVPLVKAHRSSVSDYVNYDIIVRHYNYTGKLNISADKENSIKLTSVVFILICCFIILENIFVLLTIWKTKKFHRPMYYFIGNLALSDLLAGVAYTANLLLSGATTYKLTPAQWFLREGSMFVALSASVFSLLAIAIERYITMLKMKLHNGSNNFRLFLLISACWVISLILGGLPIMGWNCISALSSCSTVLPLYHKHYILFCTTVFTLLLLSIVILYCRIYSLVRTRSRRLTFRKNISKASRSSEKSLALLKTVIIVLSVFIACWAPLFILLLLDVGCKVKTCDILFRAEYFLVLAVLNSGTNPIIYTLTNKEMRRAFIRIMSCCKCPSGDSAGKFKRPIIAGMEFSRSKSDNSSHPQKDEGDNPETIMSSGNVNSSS
Put plainly: Human S1P Receptor Calcium FLIPR Antagonist Assay, HeLa Gα16 S1P1. Format: cell-based. The conditions noted are these: HeLa-S1P1/Gα16 cells; antagonism of Ca2+ signal of probing agonist GNF-AC-1 at EC80. The source says:
Human S1P Receptor Calcium FLIPR Antagonist Assays
The assay measures intracellular changes of Ca^2+ mediated by the synthetic probing agonist 3-{[2-(2-Trifluoromethyl-biphenyl-4-yl)-benzo[b]thiophen-5-ylmethyl]-amino}-propionic acid (GNF-AC-1) in the HeLa-S1P1/Gα16 cell clone 1: HeLa (human cervix carcinoma, ATCC CCL2) cells stably expressing N-terminally myc-tagged human S1P1 receptors (GenBank™ accession No. NM_001400; UNIPROT P21453) and promiscuous Gα16 protein (GenBank™ accession number M63904, Swissprot P30679) are cultured at 37° C., 5% CO2, and 95% relative humidity. The cells are plated in 384 well black plates (10,000 cells per well). After 24 hours the cells are loaded with Fluo4-AM (1.6 μM in HBSS and 2.5 mM probenicid) for 1 hour at 37° C. After washing, the cells are transferred to the FLIPR. The test compounds are added at different concentrations (≦30 μM) in HBSS in the presence of 0.1% BSA and changes in fluorescence are recorded (indication of agonism). The probing agonist is added 15 minutes afterwards to the wells at a concentration giving 80% of the maximal activity (EC80). After each addition time points are collected as follows: 20 time points (2 seconds) before the addition of the agonist (Fmin) and 60 time points (1 or 2 seconds) after the addition of the probing agonist. This allows the determination of the maximal fluorescence (Fmax). The ratio (Fmax-Fmin)/Fmin is plotted against the log of the concentration of the test compounds and the IC50 (relative antagonism) is determined with the help of XLfit-4 software. […] A dose response curve of the probing agonist is determined on each plate in parallel. The compounds of the invention are typically active in this assay at a concentration ranging typically from <1 nM to 30 μM, usually from less than 1 nanomolar to 1 micromolar.
Usually pIC50 stands for the negative decadic logarithm of the IC50, by convention in mol/L. For `Cc1cc(S(=O)(=O)Nc2cccc(-c3ccc(C(=O)NCC(=O)O)cc3)c2)c(C)cc1Cl` [Example 23, {[3′-(4-Chloro-2,5-dimethyl-benzenesulfonylamino)-biphenyl-4-carbonyl]-amino}-acetic acid], the pIC50 was 8.49.
Consider `Cc1cc(S(=O)(=O)Nc2cccc(-c3ccc(C(=O)N[C@@H](C)C(=O)O)cc3)c2)c(C)cc1Cl` [Example 25, (S)-2-{[3′-(4-Chloro-2,5-dimethyl-benzenesulfonylamino)-biphenyl-4-carbonyl]-amino}-propionic acid], for which the negative logarithm of the IC50 (pIC50) was 8.06.
On to `Cc1cc(S(=O)(=O)Nc2cccc(-c3ccc(C(=O)N[C@@H](CO)C(=O)O)cc3)c2)c(C)cc1Cl` [Example 28], for which the pIC50 was 8.55.
For `Cc1cc(S(=O)(=O)Nc2cccc(-c3ccc(C(=O)N[C@H](CC(=O)O)c4ccccc4)cc3)c2)c(C)cc1Cl` [Example 36, (R)-3-{[3′-(4-Chloro-2,5-dimethyl-benzenesulfonylamino)-biphenyl-4-carbonyl]-amino}-3-phenyl-propionic acid] the value was 8.03; for `Cc1cc(S(=O)(=O)Nc2cccc(-c3ccc(C(=O)N[C@@H](CO)C(=O)O)c(C)c3)c2)c(C)cc1Cl` [Example 45, (S)-2-{[3′-(4-Chloro-2,5-dimethyl-benzenesulfonylamino)-3-methyl-biphenyl-4-carbonyl]-amino}-3-hydroxy-propionic acid], 8.96.
For `Cc1cc(S(=O)(=O)Nc2cccc(-c3ccc(C(=O)N[C@H](CO)C(=O)O)c(C)c3)c2)c(C)cc1Cl` [Example 46, (R)-2-{[3′-(4-Chloro-2,5-dimethyl-benzenesulfonylamino)-3-methyl-biphenyl-4-carbonyl]-amino}-3-hydroxy-propionic acid] the value was 9.10.
`Cc1cc(S(=O)(=O)Nc2cccc(-c3ccc(C(=O)N[C@H](C(=O)O)[C@@H](C)O)c(C)c3)c2)c(C)cc1Cl` [Example 47, (2S,3R)-2-{[3′-(4-Chloro-2,5-dimethyl-benzenesulfonylamino)-3-methyl-biphenyl-4-carbonyl]-amino}-3-hydroxy-butyric acid]: the pIC50 was 8.82.
Take `Cc1cc(S(=O)(=O)Nc2cccc(-c3ccc(C(=O)N[C@@H](COC(C)(C)C)C(=O)O)c(C)c3)c2)c(C)cc1Cl` [Example 48, (S)-3-tert-Butoxy-2-{[3′-(4-chloro-2,5-dimethyl-benzenesulfonylamino)-3-methyl-biphenyl-4-carbonyl]-amino}-propionic acid]: the pIC50 is 8.05.
In the case of `Cc1cc(S(=O)(=O)Nc2cccc(-c3ccc(C(=O)NC4(C(=O)O)CNC4)c(C)c3)c2)c(C)cc1Cl` [Example 51, 3-{[3′-(4-Chloro-2,5-dimethyl-benzenesulfonylamino)-3-methyl-biphenyl-4-carbonyl]-amino}-azetidine-3-carboxylic acid], the pIC50 is 8.52.
Consider `Cc1cc(S(=O)(=O)Nc2cccc(-c3ccc(C(=O)NC4(C(=O)O)CN(C)C4)c(C)c3)c2)c(C)cc1Cl` [Example 55, 3-{[3′-(4-Chloro-2,5-dimethyl-benzenesulfonylamino)-3-methyl-biphenyl-4-carbonyl]-amino}-1-methyl-azetidine-3-carboxylic acid], for which the pIC50 was 8.30.
In the case of `CC(=O)N1CC(NC(=O)c2ccc(-c3cccc(NS(=O)(=O)c4cc(C)c(Cl)cc4C)c3)cc2C)(C(=O)O)C1` [Example 56, 1-Acetyl-3-{[3′-(4-chloro-2,5-dimethyl-benzenesulfonylamino)-3-methyl-biphenyl-4-carbonyl]-amino}-azetidine-3-carboxylic acid], the pIC50 is 8.30.
For the compound `Cc1cc(S(=O)(=O)Nc2cccc(-c3ccc(C(=O)NC4(C(=O)O)CC4)c(C)c3)c2)c(C)cc1Cl` [Example 57, 1-{[3′-(4-Chloro-2,5-dimethyl-benzenesulfonylamino)-3-methyl-biphenyl-4-carbonyl]-amino}-cyclopropanecarboxylic acid], the pIC50 was 9.10.
